In the supplement of paper PMC11208160:

Assay: recombinant barcode read abundance after kanamycin selection (control-corrected) (log10(CPM+1)); higher = more efficient recombination; sequences stand for … in AGTGCAGAGAAAATCGGCCAGTTTTCTCTGCCTGCAGTCCGCATGCCGT…AGATTTATGCAGCGGACTGCCTTTCTCCCAAAGTGATAAACCGGACAGTATCATGGACCGGTTTTCCCGGTAATCCGTATTTGCAAGGTTGGTTTCACT; site = the 11-nt target
Procedure, shortened: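 Reported as log10(CPM+1), each value stands for recombination efficiency. That efficiency is the averaged, control-corrected counts per million of barcodes found at recombinant junctions. Cells from a pooled E. coli library pairing targets with IS621 bridge RNA target-binding loops were plated twice on chloramphenicol/ampicillin LB agar (control) and twice on chloramphenicol/ampicillin/kanamycin with 0.1 mM IPTG.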
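Also: IS621 recombinase and bridge RNA in Escherichia coli cells.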

First: GTCGTCACTTGGGTTCTAACCTGTTGCCT (site GTCGTCCCTAG)
Second: CTACTATCTTGGGTTCTAACCTGTTGCGT (site CTACTATCTAC)
The “recombinant barcode read abundance (log10)” value of the first is lower: 0.0716 for the first, 1.58 for the second.

Compared with “GATATAGCTTGGGTTCTAACCTGTTGCGG (site GATATAGCTCC)”, “ACAAGGCCTTGGGTTCTAACCTGTTGCCT (site TCAAGGCCTAG)” is lower in “recombinant barcode read abundance (log10)” value: 2.31 for the first, 0.0644 for the second.

Compared with “CCAGAAGCTTGGGTTCTAACCTGTTGCCT (site CCAGGAGCTAG)”, “TGCTGTACTTGGGTTCTAACCTGTTGCCT (site TGCTGTGCTAG)” is lower in “recombinant barcode read abundance (log10)” value: 0.407 for the first, 0.0772 for the second.

First: AGACTCTCTTGGGTTCTAACCTGTTGCCT (site AGACTCTCTAG)
Second: AAGCCAACTTGGGTTCTAACCTGTTGCCT (site AAGCAAACTAG)
The “recombinant barcode read abundance (log10)” value of the first is higher: 2.01 for the first, 0.294 for the second.

Going from “CGGCTGTCTTGGGTTCTAACCTGTTGCCT (site CGGCTGTCTAG)” to “ACCCAGCCTTGGGTTCTAACCTGTTGCGT (site ACCCAGCCTAA)”, the “recombinant barcode read abundance (log10)” value falls from 1.28 to 0.534.

First: AACATACCTTGGGTTCTAACCTGTTGCCT (site AACATACCTAG)
Second: AGTCTCGCTTGGGTTCTAACCTGTTGCGG (site AGTCTCGCTCC)
The “recombinant barcode read abundance (log10)” value of the first is higher: 0.737 for the first, 0.345 for the second.

Going from “AAGGTCGCTTGGGTTCTAACCTGTTGCCT (site AAGGACGCTAG)” to “ACGGCTCCTTGGGTTCTAACCTGTTGCTG (site ACGACTCCTCA)”, the “recombinant barcode read abundance (log10)” value falls from 0.33 to 0.0439.

Compared with “CCTCAGGCTTGGGTTCTAACCTGTTGCCA (site CCTCAGGCTTG)”, “GACTTCCCTTGGGTTCTAACCTGTTGCAT (site GACTTGCCTAT)” is lower in “recombinant barcode read abundance (log10)” value: 0.323 for the first, 0.0893 for the second.

Going from “CATGACCCTTGGGTTCTAACCTGTTGCCT (site CAGGACCCTAG)” to “GACTTACCTTGGGTTCTAACCTGTTGCAT (site GACTTCCCTAT)”, the “recombinant barcode read abundance (log10)” value falls from 0.85 to 0.216.

“GAACCACCTTGGGTTCTAACCTGTTGCCT (site TCACCACCTAG)” and “ACGGAGACTTGGGTTCTAACCTGTTGCAT (site GTACTACCTCG)” are within 0.2 log units of each other in “recombinant barcode read abundance (log10)” value: 0.133 for the first, 0.108 for the second.

“CTGACTTCTTGGGTTCTAACCTGTTGCCT (site CCGACTTCTAG)” and “CCTTCTACTTGGGTTCTAACCTGTTGCCT (site CCTTCTACTAG)” are within 0.2 log units of each other in “recombinant barcode read abundance (log10)” value: 0.0377 for the first, 0.225 for the second.

“GTACGTCCTTGGGTTCTAACCTGTTGCAT (site GTACGTCCTAG)” and “GAGCGAGCTTGGGTTCTAACCTGTTGCAG (site GAGCGAGCTCA)” are within 0.2 log units of each other in “recombinant barcode read abundance (log10)” value: 0.52 for the first, 0.578 for the second.

Going from “AAGTATTCTTGGGTTCTAACCTGTTGCGT (site AAGTATTCTAC)” to “AGCAATTCTTGGGTTCTAACCTGTTGCCT (site AGTAATTCTAG)”, the “recombinant barcode read abundance (log10)” value falls from 2.23 to 0.277.

Compared with “TCACAGCCTTGGGTTCTAACCTGTTGCTG (site TCAAAGCCTCA)”, “GTGTACCCTTGGGTTCTAACCTGTTGCGG (site GTGTACCCTCC)” is higher in “recombinant barcode read abundance (log10)” value: 0.106 for the first, 1.93 for the second.

Going from “GATCGATCTTGGGTTCTAACCTGTTGCTT (site GATCGATCTAG)” to “CTTAGGGCTTGGGTTCTAACCTGTTGCGG (site CTAAGGGCTCC)”, the “recombinant barcode read abundance (log10)” value rises from 0.248 to 2.14.

First: TAAAAGTCTTGGGTTCTAACCTGTTGCCT (site TAAAAGACTAG)
Second: CATGTACCTTGGGTTCTAACCTGTTGCCT (site CATGTACCTAG)
The “recombinant barcode read abundance (log10)” value of the first is lower: 0.108 for the first, 2.02 for the second.

“GAGCGGACTTGGGTTCTAACCTGTTGCCT (site GAGCGGACTAG)” and “GCACGACCTTGGGTTCTAACCTGTTGCCT (site GCACGACCTAG)” are within 0.2 log units of each other in “recombinant barcode read abundance (log10)” value: 1.68 for the first, 1.56 for the second.

“ATATGGGCTTGGGTTCTAACCTGTTGCCG (site ATATGTGCTCG)” and “TTACCTACTTGGGTTCTAACCTGTTGCCT (site TTACCGACTAG)” are within 0.2 log units of each other in “recombinant barcode read abundance (log10)” value: 0.1 for the first, 0.278 for the second.

“ATGCGAGCTTGGGTTCTAACCTGTTGCTG (site ATGCGAGCTCA)” and “CACTTAGCTTGGGTTCTAACCTGTTGCGG (site CACTTAGCTCC)” are within 0.2 log units of each other in “recombinant barcode read abundance (log10)” value: 1.19 for the first, 1.28 for the second.

Compared with “ACTACTCCTTGGGTTCTAACCTGTTGCGA (site ACTACTCCTTC)”, “CTCAGACCTTGGGTTCTAACCTGTTGCTG (site CTCAGACCTCA)” is lower in “recombinant barcode read abundance (log10)” value: 0.93 for the first, 0.037 for the second.

Compared with “CCGGATGCTTGGGTTCTAACCTGTTGCCT (site CCGGATGCTAG)”, “CGGCTGTCTTGGGTTCTAACCTGTTGCCT (site GTAGGAACTCA)” is lower in “recombinant barcode read abundance (log10)” value: 0.775 for the first, 0.0275 for the second.

Going from “CTTACGACTTGGGTTCTAACCTGTTGCCT (site CTTACGACTAG)” to “GTACGTCCTTGGGTTCTAACCTGTTGCAT (site GTACGTCCTAT)”, the “recombinant barcode read abundance (log10)” value rises from 0.695 to 1.

Going from “GCCGATCCTTGGGTTCTAACCTGTTGCCT (site GCCGATCCTAG)” to “CGATACACTTGGGTTCTAACCTGTTGCCG (site CGATACACTCG)”, the “recombinant barcode read abundance (log10)” value rises from 0.12 to 0.571.

Compared with “GCTGGTCCTTGGGTTCTAACCTGTTGCCT (site GCTGGTCCTAG)”, “GATGGTCCTTGGGTTCTAACCTGTTGCGG (site GATGGTCCTCC)” is higher in “recombinant barcode read abundance (log10)” value: 1.75 for the first, 2.34 for the second.

First: AACAAGCCTTGGGTTCTAACCTGTTGCTG (site AACAAGCCTCA)
Second: ATGAGAGCTTGGGTTCTAACCTGTTGCCT (site ATAAGACCTAG)
The “recombinant barcode read abundance (log10)” value of the first is higher: 0.896 for the first, 0.324 for the second.

“TCACATGCTTGGGTTCTAACCTGTTGCCT (site TCACCTGCTAG)” and “CGATACACTTGGGTTCTAACCTGTTGCCG (site CGATCCACTCA)” are within 0.2 log units of each other in “recombinant barcode read abundance (log10)” value: 0.0279 for the first, 0.052 for the second.

Compared with “GCCGCGCCTTGGGTTCTAACCTGTTGCAG (site GCCACGCCTCT)”, “CCTGGGACTTGGGTTCTAACCTGTTGCGA (site CCTGGGACTCC)” is higher in “recombinant barcode read abundance (log10)” value: 0.0533 for the first, 0.256 for the second.

“CCGCCCTCTTGGGTTCTAACCTGTTGCCT (site CGGCCCTCTAG)” and “TAAAGTACTTGGGTTCTAACCTGTTGCTT (site TAACGTACTAA)” are within 0.2 log units of each other in “recombinant barcode read abundance (log10)” value: 0.105 for the first, 0.0583 for the second.

“TGCTGTTCTTGGGTTCTAACCTGTTGCCT (site TGCTGTACTAG)” and “TGGACTTCTTGGGTTCTAACCTGTTGCTG (site TGGACTTCTCA)” are within 0.2 log units of each other in “recombinant barcode read abundance (log10)” value: 0.0922 for the first, 0.0836 for the second.

“TAAAAGACTTGGGTTCTAACCTGTTGCCT (site TAAAAGGCTAG)” and “AGCGGACCTTGGGTTCTAACCTGTTGCCT (site AGCGGCCCTAG)” are within 0.2 log units of each other in “recombinant barcode read abundance (log10)” value: 0.311 for the first, 0.133 for the second.

“GTTCCTACTTGGGTTCTAACCTGTTGCCT (site GGTCCTACTAG)” and “GAACGCTCTTGGGTTCTAACCTGTTGCCA (site GAACGCTCTTG)” are within 0.2 log units of each other in “recombinant barcode read abundance (log10)” value: 0.133 for the first, 0.265 for the second.

“TAGGCTCCTTGGGTTCTAACCTGTTGCAG (site TAGGCTCCTAT)” and “TAGGATACTTGGGTTCTAACCTGTTGCAG (site TAGGATACTAT)” are within 0.2 log units of each other in “recombinant barcode read abundance (log10)” value: 0.271 for the first, 0.29 for the second.

“GAAGAGACTTGGGTTCTAACCTGTTGCCT (site GAAAACACTAG)” and “GCGTCGTCTTGGGTTCTAACCTGTTGCCT (site GCCTCGTCTAG)” are within 0.2 log units of each other in “recombinant barcode read abundance (log10)” value: 0.0941 for the first, 0.193 for the second.

Going from “CAAGATTCTTGGGTTCTAACCTGTTGCCT (site CTAGATTCTAG)” to “TTAGCTTCTTGGGTTCTAACCTGTTGCCT (site TTAGCATCTAG)”, the “recombinant barcode read abundance (log10)” value falls from 0.6 to 0.078.

“CTCTCGTCTTGGGTTCTAACCTGTTGCAT (site CTCTCGTCTAA)” and “GCACGGACTTGGGTTCTAACCTGTTGCAG (site GCAGGGACTCT)” are within 0.2 log units of each other in “recombinant barcode read abundance (log10)” value: 0.0866 for the first, 0.164 for the second.

Going from “CTAAGAGCTTGGGTTCTAACCTGTTGCCA (site CTAAGAGCTTG)” to “ATCTAAACTTGGGTTCTAACCTGTTGCCT (site CGAGTCCCTCT)”, the “recombinant barcode read abundance (log10)” value falls from 0.483 to 0.105.

“TCCTAATCTTGGGTTCTAACCTGTTGCTT (site TCCTAATCTAA)” and “CCTGACTCTTGGGTTCTAACCTGTTGCCT (site CCTGAGTCTAG)” are within 0.2 log units of each other in “recombinant barcode read abundance (log10)” value: 0.111 for the first, 0.0146 for the second.

Compared with “TTATTGTCTTGGGTTCTAACCTGTTGCCT (site TTCTTGCCTAG)”, “TAAAGTACTTGGGTTCTAACCTGTTGCTT (site TAAAGTACTAA)” is higher in “recombinant barcode read abundance (log10)” value: 0.024 for the first, 0.467 for the second.

Compared with “CCGGACCCTTGGGTTCTAACCTGTTGCTG (site CCGGACCCTCA)”, “CTAGCTCCTTGGGTTCTAACCTGTTGCAG (site CTAGCTCCTCT)” is lower in “recombinant barcode read abundance (log10)” value: 2.49 for the first, 1.54 for the second.

“ATTGCTCCTTGGGTTCTAACCTGTTGCCT (site ATTGGTCCTAT)” and “CACCGTCCTTGGGTTCTAACCTGTTGCAT (site CACCGTCCTAC)” are within 0.2 log units of each other in “recombinant barcode read abundance (log10)” value: 0.126 for the first, 0.0846 for the second.

Compared with “TAGTTGCCTTGGGTTCTAACCTGTTGCCT (site TACTTGCCTAG)”, “GCGCACCCTTGGGTTCTAACCTGTTGCAG (site GCGCACCCTCT)” is higher in “recombinant barcode read abundance (log10)” value: 0 for the first, 1.15 for the second.

Going from “CTACGCACTTGGGTTCTAACCTGTTGCTG (site CTACGAACTCA)” to “GTCGTCTCTTGGGTTCTAACCTGTTGCCT (site GTCGTCCCTAG)”, the “recombinant barcode read abundance (log10)” value rises from 0 to 0.463.

“CGCGGGGCTTGGGTTCTAACCTGTTGCCT (site CGCGCGGCTAG)” and “AACTTTCCTTGGGTTCTAACCTGTTGCAT (site AACTTTCCTAT)” are within 0.2 log units of each other in “recombinant barcode read abundance (log10)” value: 0.392 for the first, 0.259 for the second.
